The values below come from patent publication US9187435B2, “Bridged Spiro[2.4]heptane ester derivatives” (Actelion Pharmaceuticals Ltd., priority 2010, dated 2015).

Each structure is given as a SMILES string. Structures can show the parent of a compound that is named as a salt.

In this experiment the target is T1, human ALX receptor (Homo sapiens, UniProt P25090).
T1 construct: expressed in transfected cells; host or cells: HEK293 (HEK293-hALXR-Gα16)
T1 sequence (P25090 1-351): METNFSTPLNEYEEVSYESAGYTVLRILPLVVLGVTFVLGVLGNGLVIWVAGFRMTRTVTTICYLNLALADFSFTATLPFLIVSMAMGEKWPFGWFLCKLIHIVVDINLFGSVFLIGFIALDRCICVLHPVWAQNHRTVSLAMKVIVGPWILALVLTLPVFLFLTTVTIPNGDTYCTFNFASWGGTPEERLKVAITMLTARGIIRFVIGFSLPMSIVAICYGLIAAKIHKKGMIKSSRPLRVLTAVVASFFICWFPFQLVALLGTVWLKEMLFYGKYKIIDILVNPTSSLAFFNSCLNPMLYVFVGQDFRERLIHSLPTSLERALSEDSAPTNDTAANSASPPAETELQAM
In words: Intracellular calcium measurements (FLIPR) in HEK293-hALXR-Gα16 cells, agonistic activity. Format: cell-based. The note with it: values normalized to WKYMVm 10 nM. As for the experimental part: The ALX receptor and FPRL2 agonistic activities of the compounds of formula (I) are determined in accordance with the following experimental method.
Intracellular Calcium Measurements:
Cells expressing recombinant human ALX receptor and the G-protein Gα16 (HEK293-hALXR-Gα16) were grown to 80% confluency in Growing Medium (GM). Cells were detached from culture dishes with a cell dissociation buffer (Invitrogen, 13151-014), and collected by centrifugation at 1,000 rpm at rt for 5 min in Assay Buffer (AB) (equal parts of Hank's BSS (Gibco, 14065-049) and DMEM without Phenol Red (Gibco, 11880-028)). After 60 min incubation at 37° C. under 5% CO2 in AB supplemented with 1 μM Fluo-4 (AM) (Invitrogen, F14202), and 20 mM HEPES (Gibco, 15630-056), the cells were washed and resuspended in AB. They were then seeded onto 384-well FLIPR assay plates (Greiner, 781091) at 50,000 cells in 70 μl per well and sedimented by centrifugation at 1,000 rpm for 1 min. Stock solutions of test compounds were made up at a concentration of 10 mM in DMSO, and serially diluted in AB to concentrations required for activation dose response curves. WKYMVm (Phoenix Peptides) was used as a reference agonist. FLIPR384 or FLIPR Tetra instruments (Molecular Devices) were operated according to the manufacturer's standard instructions, adding 4 μl of test compound dissolved at 10 mM in DMSO and diluted prior to the experiment in assay buffer to obtain the desired final concentration. Changes in fluorescence were monitored before and after the addition of test compounds at lex=488 nm and lem=540 nm. Emission peak values above base level after compounds addition were exported after base line subtraction. Values were normalized to high-level control (WKYMVm compound, 10 nM final concentration) after subtraction of the base line value (AB addition).
(In general: Calcium assays in cells follow changes in intracellular calcium, usually with a dye or a luminescent sensor.)
As a reminder, the EC50 is the concentration needed to bring the measured effect to its halfway point. With `O=C(OCCOCCN1CC[C@H](F)C1)[C@H]1[C@H](C(=O)NCc2ccc(Br)cc2F)[C@@H]2CC[C@H]1C21CC1` [Example 69, (1S,2R,3R,4R)-[(S)-2-(2-(3-Fluoropyrrolidin-1-yl)ethoxy)ethyl 2-((4-bromo-2-fluorobenzyl)carbamoyl)spiro[bicyclo[2.2.1]heptane-7,1′-cyclopropane]-3-carboxylate]], the EC50 worked out at 145 nM.

As to `CN1CCC(OC(=O)[C@H]2[C@H](C(=O)Nc3ccc(Br)nc3)[C@@H]3CC[C@H]2C32CC2)CC1` [Example 6, (1S,2R,3R,4R)-[1-Methylpiperidin-4-yl 2-((6-bromopyridin-3-yl)carbamoyl)spiro[bicyclo[2.2.1]heptane-7,1′-cyclopropane]-3-carboxylate]], the EC50 is 257 nM.

For the compound `O=C(OCCOCCN1CCC(F)(F)C1)[C@H]1[C@H](C(=O)Nc2ccc(Br)nc2)[C@@H]2CC[C@H]1C21CC1` [Example 75, (1S,2R,3R,4R)-[2-(2-(3,3-Difluoropyrrolidin-1-yl)ethoxy)ethyl 2-((6-bromopyridin-3-yl)carbamoyl)spiro[bicyclo[2.2.1]heptane-7,1′-cyclopropane]-3-carboxylate]], the EC50 was 403 nM.

For the compound `O=C(OCCC1CCNCC1)[C@H]1[C@H](C(=O)NCc2ccc(Br)cc2F)[C@@H]2CC[C@H]1C21CC1` [Example 72, (1S,2R,3R,4R)-[2-(Piperidin-4-yl)ethyl 2-((4-bromo-2-fluorobenzyl)carbamoyl)spiro[bicyclo[2.2.1]heptane-7,1′-cyclopropane]-3-carboxylate]hydrochloride], the EC50 was 262 nM.

`O=C(OCC(O)CO)[C@H]1[C@H](C(=O)Nc2ccc(Br)nc2)[C@@H]2CC[C@H]1C21CC1` (relative stereo) [Example 5, (1S,2R,3R,4R)-[(S*)-2,3-Dihydroxypropyl 2-((6-bromopyridin-3-yl)carbamoyl)spiro[bicyclo[2.2.1]heptane-7,1′-cyclopropane]-3-carboxylate]]: the EC50 came out at 242 nM.

For the compound `Cc1cc(CNC(=O)[C@H]2[C@H](C(=O)OCCN3CCNCC3)[C@H]3CC[C@@H]2C32CC2)no1` [Example 63, (1S,2R,3R,4R)-[2-(piperazin-1-yl)ethyl 2-(((5-methylisoxazol-3-yl)methyl)carbamoyl)spiro[bicyclo[2.2.1]heptane-7,1′-cyclopropane]-3-carboxylate]], the EC50 is 79 nM.

Turning to `Cc1cc(CNC(=O)[C@H]2[C@H](C(=O)OCCOCCN3CCCC3)[C@H]3CC[C@@H]2C32CC2)no1` [Example 33, (1S,2R,3R,4R)-[2-(2-(Pyrrolidin-1-yl)ethoxy)ethyl 2-(((5-methylisoxazol-3-yl)methyl)carbamoyl)spiro[bicyclo[2.2.1]heptane-7,1′-cyclopropane]-3-carboxylate]], the EC50 stood at 30.7 nM.

For `O=C(O[C@@H]1CCNC1)[C@H]1[C@H](C(=O)Nc2ccc(Br)nc2)[C@@H]2CC[C@H]1C21CC1` [Example 13, (1S,2R,3R,4R)-[(R)-Pyrrolidin-3-yl 2-((6-bromopyridin-3-yl)carbamoyl)spiro[bicyclo[2.2.1]heptane-7,1′-cyclopropane]-3-carboxylate]hydrochloride], the EC50 amounted to 17.9 nM.

In the case of `O=C(OCC1CCNCC1)[C@H]1[C@H](C(=O)Nc2ccc(Br)cc2)[C@@H]2CC[C@H]1C21CC1` [Example 50, (1S,2R,3R,4R)-[(Piperidin-4-yl)methyl 2-((4-bromophenyl)carbamoyl)spiro[bicyclo[2.2.1]heptane-7,1′-cyclopropane]-3-carboxylate]hydrochloride], the EC50 is 10.8 nM.

Consider `Cc1cc(CNC(=O)[C@H]2[C@H](C(=O)OCCC3(F)CCNCC3)[C@H]3CC[C@@H]2C32CC2)no1` [Example 58, (1S,2R,3R,4R)-[2-(4-Fluoro-piperidin-4-yl)ethyl 2-(((5-methylisoxazol-3-yl)methyl)carbamoyl)spiro[bicyclo[2.2.1]heptane-7,1′-cyclopropane]-3-carboxylate]], for which the EC50 was found to be 36.7 nM.

As for `O=C(OCC1(F)CCNCC1)[C@H]1[C@H](C(=O)Nc2ccc(Br)nc2)[C@@H]2CC[C@H]1C21CC1` [Example 55, (1S,2R,3R,4R)-[(4-Fluoro-piperidin-4-yl)methyl 2-((6-bromopyridin-3-yl)carbamoyl)spiro[bicyclo[2.2.1]heptane-7,1′-cyclopropane]-3-carboxylate]], the EC50 turned out to be 18.5 nM.

Turning to `CCCOC(=O)[C@H]1[C@H](C(=O)NCc2cc(C)on2)[C@@H]2CC[C@H]1C21CC1` [Example 30, (1S,2R,3R,4R)-[Propyl 2-(((5-methylisoxazol-3-yl)methyl)carbamoyl)spiro[bicyclo[2.2.1]heptane-7,1′-cyclopropane]-3-carboxylate]], the EC50 came out at 808 nM.

For the compound `O=C(OC1CNC1)[C@H]1[C@H](C(=O)Nc2ccc(Br)nc2)[C@@H]2CC[C@H]1C21CC1` [Example 24, (1S,2R,3R,4R)-[Azetidin-3-yl 2-((6-bromopyridin-3-yl)carbamoyl)spiro[bicyclo[2.2.1]heptane-7,1′-cyclopropane]-3-carboxylate]hydrochloride], the EC50 came out at 289 nM.

Consider `O=C(OCC1CCNCC1)[C@H]1[C@H](C(=O)Nc2ccc(Br)nc2)[C@@H]2CC[C@H]1C21CC1` [Example 41, (1S,2R,3R,4R)-[(Piperidin-4-yl)methyl 2-((6-bromopyridin-3-yl)carbamoyl)spiro[bicyclo[2.2.1]heptane-7,1′-cyclopropane]-3-carboxylate]hydrochloride], for which the EC50 is 5.2 nM.

Consider `O=C(O[C@@H]1CCNC[C@H]1F)[C@H]1[C@H](C(=O)Nc2ccc(Br)nc2)[C@@H]2CC[C@H]1C21CC1` (relative stereo) [Example 57, (1S,2R,3R,4R)-[(trans-3-Fluoro-piperidin-4-yl) 2-((6-bromopyridin-3-yl)carbamoyl)spiro[bicyclo[2.2.1]heptane-7,1′-cyclopropane]-3-carboxylate]], for which the EC50 turned out to be 33.4 nM.

With `O=C(OCC1CCCNC1)[C@H]1[C@H](C(=O)Nc2ccc(Br)nc2)[C@@H]2CC[C@H]1C21CC1` (stereo partly drawn) [Example 12, (1S,2R,3R,4R)-[Piperidin-3-ylmethyl 2-((6-bromopyridin-3-yl)carbamoyl)spiro[bicyclo[2.2.1]heptane-7,1′-cyclopropane]-3-carboxylate]hydrochloride], the EC50 is 15.5 nM.

Take `NC(=O)CCOC(=O)[C@H]1[C@H](C(=O)Nc2ccc(Br)nc2)[C@@H]2CC[C@H]1C21CC1` [Example 68, (1S,2R,3R,4R)-[(3-Amino-3-oxopropyl) 2-((6-bromopyridin-3-yl)carbamoyl)spiro[bicyclo[2.2.1]heptane-7,1′-cyclopropane]-3-carboxylate]]: the EC50 was found to be 135 nM.

As to `O=C(OCCCCN1CCCC1)[C@H]1[C@H](C(=O)Nc2ccc(Br)nc2)[C@@H]2CC[C@H]1C21CC1` [Example 54, (1S,2R,3R,4R)-[4-(Pyrrolidin-1-yl)butyl 2-((6-bromopyridin-3-yl)carbamoyl)spiro[bicyclo[2.2.1]heptane-7,1′-cyclopropane]-3-carboxylate]], the EC50 came out at 14.6 nM.

Turning to `Cc1cc(CNC(=O)[C@H]2[C@H](C(=O)OCCC3CCNCC3(F)F)[C@H]3CC[C@@H]2C32CC2)on1` (stereo partly drawn) [Example 66, (1S,2R,3R,4R)-[(3,3-Difluoro-piperidin-4-yl)ethyl 2-(((3-methylisoxazol-5-yl)methyl)carbamoyl)spiro[bicyclo[2.2.1]heptane-7,1′-cyclopropane]-3-carboxylate]], the EC50 came to 113 nM.

For the compound `Cc1cc(CNC(=O)[C@H]2[C@H](C(=O)OC3CCN(C)C3)[C@H]3CC[C@@H]2C32CC2)no1` (stereo partly drawn) [Example 15, (1S,2R,3R,4R)-[1-Methylpyrrolidin-3-yl 2-(((5-methylisoxazol-3-yl)methyl)carbamoyl)spiro[bicyclo[2.2.1]heptane-7,1′-cyclopropane]-3-carboxylate]], the EC50 was found to be 34.6 nM.

Turning to `O=C(OC[C@H]1CCNC[C@H]1F)[C@H]1[C@H](C(=O)Nc2ccc(Br)nc2)[C@@H]2CC[C@H]1C21CC1` (relative stereo) [Example 64, (1S,2R,3R,4R)-[(cis-3-Fluoro-piperidin-4-yl)methyl 2-((6-bromopyridin-3-yl)carbamoyl)spiro[bicyclo[2.2.1]heptane-7,1′-cyclopropane]-3-carboxylate]], the EC50 came to 106 nM.
